Like-named read-outs stand apart in the source and are kept apart here.
Experiments:
[1] = test system: RNA Polymerase II Serine 5 phosphorylation (Rpb1 CTD, downstream substrate of CDK7) in A549 cells; assay: Imaging-based cellular RNA PolII Ser5 phosphorylation assay in A549 cells; format: cell-based, human; conditions: wild-type CDK7, RNA PolII Ser5 phosphorylation, averaged over all measurements; for IC50: Homo sapiens, A549, A549 cells, read-out: CDK7_A549 Wild-type CDK7 (pIC50) (converted); for CDK7_A549 Wild-type CDK7 (pIC50): A549 cells
Outline: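 IC50 derived by fitting % control (DMSO high, 10 μM reference low) against concentration, with Hill slope. Readout: high-content imaging of phospho-Ser5 Rpb1 CTD antibody staining in fixed, permeabilized A549 cells exposed to compound 3 h after 20 h culture in 1% FBS DMEM.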

[2] = target: CDK7/cyclinH/MAT1 trimeric complex (Homo sapiens, UniProt P50613); assay: In vitro CDK7 assay, potency of irreversible covalent inhibitors (kinact/KI), coupled PK/LDH ADP readout at 340 nm; conditions: for Ki: CDK7 (20 nM enz.) (KI, μM); for Ki / CDK7 (20 nM enz.) (kinact, s^−1) / CDK7 (20 nM enz.) (kinact/KI, M^−1*s^−1) / CDK7 (20 nM enz.) (kobs/[I], M^−1*s^−1): 20 nM enzyme; for kinact: read-out: CDK7 (20 nM enz.) (kinact, s^−1), 20 nM enzyme
Chain of CDK7/cyclinH/MAT1 trimeric complex (P50613 whole entry): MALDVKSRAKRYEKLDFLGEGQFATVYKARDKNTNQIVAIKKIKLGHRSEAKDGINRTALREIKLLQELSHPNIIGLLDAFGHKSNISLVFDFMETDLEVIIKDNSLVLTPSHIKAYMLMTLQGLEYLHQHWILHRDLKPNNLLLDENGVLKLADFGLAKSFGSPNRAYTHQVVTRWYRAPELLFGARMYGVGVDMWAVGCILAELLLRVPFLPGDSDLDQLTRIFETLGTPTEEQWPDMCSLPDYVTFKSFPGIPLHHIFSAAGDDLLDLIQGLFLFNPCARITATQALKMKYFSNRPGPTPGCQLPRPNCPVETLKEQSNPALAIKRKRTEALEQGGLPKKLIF
Chain of CDK7/cyclinH/MAT1 trimeric complex (P51946 whole entry partner): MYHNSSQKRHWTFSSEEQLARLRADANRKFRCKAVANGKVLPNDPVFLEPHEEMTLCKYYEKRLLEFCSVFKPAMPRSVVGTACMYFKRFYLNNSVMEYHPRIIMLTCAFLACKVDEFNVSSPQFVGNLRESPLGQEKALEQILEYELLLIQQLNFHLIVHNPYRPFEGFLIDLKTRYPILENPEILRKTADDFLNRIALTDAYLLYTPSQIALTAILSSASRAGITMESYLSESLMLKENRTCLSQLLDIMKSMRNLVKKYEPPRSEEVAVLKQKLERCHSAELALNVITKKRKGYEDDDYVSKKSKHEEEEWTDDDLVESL
Chain of CDK7/cyclinH/MAT1 trimeric complex (P51948 whole entry partner): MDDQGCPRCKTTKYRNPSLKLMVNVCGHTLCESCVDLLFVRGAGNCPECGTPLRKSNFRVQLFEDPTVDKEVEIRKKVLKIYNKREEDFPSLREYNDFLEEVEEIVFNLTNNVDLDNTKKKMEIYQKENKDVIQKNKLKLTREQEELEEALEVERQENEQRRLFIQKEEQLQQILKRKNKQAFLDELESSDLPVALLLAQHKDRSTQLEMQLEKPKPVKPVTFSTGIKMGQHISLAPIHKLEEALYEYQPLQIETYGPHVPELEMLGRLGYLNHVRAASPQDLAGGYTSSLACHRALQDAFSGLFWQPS

[3] = test system: RNA Polymerase II Serine 5 phosphorylation in A549 cells overexpressing CDK7-mutant (C312S); assay: Imaging-based cellular RNA PolII Ser5 phosphorylation assay in A549 cells overexpressing CDK7-mutant (C312S); format: cell-based, human; conditions: RNA PolII Ser5 phosphorylation, averaged over all measurements; for IC50: Homo sapiens, A549, A549 cells overexpressing CDK7-mutant (C312S), read-out: CDK7_A549 mutant hCDK7(pIC50) (converted); for CDK7_A549 mutant hCDK7(pIC50): A549 cells overexpressing CDK7-mutant (C312S)
Outline: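 Readout was automated imaging of anti-phospho-Ser5 Rpb1 CTD immunofluorescence, with IC50 fitted to % control versus concentration. Cells were A549 stably overexpressing non-covalently targetable CDK7 C312S alongside wild-type, exposed to compound 3 h at 37 °C. DMSO and 10 μM reference compound served as controls.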

[4] = read-out: CDK7 (20 nM enz.) (kinact/KI, M^−1*s^−1), 20 nM enzyme
[5] = read-out: CDK7 (20 nM enz.) (kobs/[I], M^−1*s^−1), 20 nM enzyme

Row | Compound | IC50 [1] | Ki [2] | kinact [2] | kinact/KI [2, 4] | IC50 [3] | CDK7_A549 Wild-type CDK7 (pIC50) [1] | CDK7 (20 nM enz.) (kinact, s^−1) [2] | CDK7 (20 nM enz.) (kinact/KI, M^−1*s^−1) [2] | CDK7_A549 mutant hCDK7(pIC50) [3] | CDK7 (20 nM enz.) (kobs/[I], M^−1*s^−1) [2] | kinact/KI [2, 5]
1 | C=CC(=O)N1CC(N2CC(c3cc4c(c(C#N)n3)OCc3c(N5CCOCC5)ccnc3N4)C2)C1 [Compound 290] | 295 nM | 0.0265 µM | 3.61e-05 s⁻¹ | 1360 M⁻¹ s⁻¹ | > 10000 nM | – | – | – | – | – | –
2 | C=CC(=O)N1CC(N2CCC(c3cc4c(c(C#N)n3)OCc3c(-c5cnn(C)c5)ccnc3N4)CC2)C1 [Compound 298] | 263 nM | 0.0311 µM | 8.92e-05 s⁻¹ | 2870 M⁻¹ s⁻¹ | > 10000 nM | – | – | – | – | – | –
3 | C=CC(=O)N1CCC(N2CC(c3cc4c(c(C)n3)OCc3c(N5CCOCC5)ccnc3N4)C2)CC1 [Compound 303] | 91.2 nM | 0.0492 µM | 2.35e-05 s⁻¹ | 477 M⁻¹ s⁻¹ | 6170 nM | – | – | – | – | – | –
4 | CC#CC(=O)N1CCC(N2CC(c3cc4c(c(C)n3)OCc3c(N5CCOCC5)ccnc3N4)C2)CC1 [Compound 313] | 77.6 nM | 0.0471 µM | 2.02e-05 s⁻¹ | 427 M⁻¹ s⁻¹ | 5370 nM | – | – | – | – | – | –
5 | C=CC(=O)N1CC(N2CCC(c3cc4c(c(C)n3)OCc3c(-c5cnn(C)c5)ccnc3N4)CC2)C1 [Compound 314] | – | 0.0655 µM | – | – | – | 7.14 | 3.945e-05 s⁻¹ | 602.565 M⁻¹ s⁻¹ | <5 | – | –
6 | C=CC(=O)N1CC(N2CC(c3cc4c(c(C(F)(F)F)n3)OCc3c(N5CCOCC5)ccnc3N4)C2)C1 [Compound 315] | – | – | – | – | – | 7.25 | – | – | 5.3 | 894.649 M⁻¹ s⁻¹ | –
7 | C=CC(=O)N1CCC(N2CC(c3cc4c(c(C)n3)OCc3c(-c5cnn(C)c5)ccnc3N4)C2)CC1 [Compound 316] | – | 0.0898 µM | – | – | – | 6.97 | 2.255e-05 s⁻¹ | 251.248 M⁻¹ s⁻¹ | 5.32 | – | –
8 | C=CC(=O)N1CC(N2CC(c3cc4c(c(C5CC5)n3)OCc3c(N5CCOCC5)ccnc3N4)C2)C1 [Compound 317] | 60.3 nM | – | – | – | > 10000 nM | – | – | – | – | – | 1060 M⁻¹ s⁻¹
9 | CC#CC(=O)N1CC(N2CC(c3cc4c(c(C5CC5)n3)OCc3c(N5CCOCC5)ccnc3N4)C2)C1 [Compound 318] | 324 nM | 0.0441 µM | 6.19e-05 s⁻¹ | 1400 M⁻¹ s⁻¹ | > 10000 nM | – | – | – | – | – | –
10 | C=CC(=O)N1CC(N2CCC(c3cc4c(c(C#N)n3)OCc3c(C5CCOCC5)ccnc3N4)CC2)C1 [Compound 322] | 79.4 nM | – | – | – | 9550 nM | – | – | – | – | – | 740 M⁻¹ s⁻¹
11 | CC#CC(=O)N1CCC(N2CCC(c3cc4c(c(C)n3)OCc3c(N5CCOCC5)ccnc3N4)CC2)CC1 [Compound 325] | < 9.77 nM | – | – | – | 4170 nM | – | – | – | – | – | 1280 M⁻¹ s⁻¹
12 | CC#CC(=O)N1CC(n2cc(-c3cc(C)c4c(c3)Nc3nccc(N5CCOCC5)c3CO4)cn2)C1 [Compound 333] | 178 nM | 0.11 µM | 2.12e-05 s⁻¹ | 193 M⁻¹ s⁻¹ | 6760 nM | – | – | – | – | – | –
13 | CC#CC(=O)N1CCC(N2CC(c3cc4c(c(C5CC5)n3)OCc3c(N5CCOCC5)ccnc3N4)C2)CC1 [Compound 335] | 55 nM | 0.0383 µM | 1.86e-05 s⁻¹ | 486 M⁻¹ s⁻¹ | 3630 nM | – | – | – | – | – | –
14 | C=CC(=O)N1CCC(N2CC(c3cc4c(c(C5CC5)n3)OCc3c(N5CCOCC5)ccnc3N4)C2)CC1 [Compound 336] | 49 nM | 0.0564 µM | – | – | 1320 nM | – | 1.295e-05 s⁻¹ | 229.663 M⁻¹ s⁻¹ | – | – | –

Second part, the compound after the results:

Row | IC50 [1] | Ki [2] | kinact [2] | kinact/KI [2, 4] | IC50 [3] | CDK7_A549 Wild-type CDK7 (pIC50) [1] | CDK7 (20 nM enz.) (kinact, s^−1) [2] | CDK7 (20 nM enz.) (kinact/KI, M^−1*s^−1) [2] | CDK7_A549 mutant hCDK7(pIC50) [3] | CDK7 (20 nM enz.) (kobs/[I], M^−1*s^−1) [2] | kinact/KI [2, 5] | Compound
15 | – | – | 4.86e-05 s⁻¹ | – | – | 7.25 | – | 299.026 M⁻¹ s⁻¹ | 5.52 | – | – | C=CC(=O)N1CCC(N2CC(c3cc(C)c4c(c3)Nc3nccc(-c5cnn(C)c5)c3CO4)C2)CC1 [Compound 338]
16 | 145 nM | 0.0746 µM | 7.81e-05 s⁻¹ | 1050 M⁻¹ s⁻¹ | > 10000 nM | – | – | – | – | – | – | C=CC(=O)N1CC(N2CC(c3cc4c(c(C#N)n3)OCc3c(C5CCOCC5)ccnc3N4)C2)C1 [Compound 339]
17 | – | 0.0486 µM | – | – | – | 7.37 | 2.465e-05 s⁻¹ | 507.473 M⁻¹ s⁻¹ | 5.43 | – | – | CC#CC(=O)N1CCC(N2CC(c3cc4c(c(C5CC5)n3)OCc3c(N5CCOCC5)ccnc3N4)C2)CC1 [Compound 340]
18 | – | 0.0443 µM | – | – | – | 7.35 | 2.9e-05 s⁻¹ | 655.075 M⁻¹ s⁻¹ | 5.64 | – | – | C=CC(=O)N1CCC(N2CC(c3cc4c(c(C5CC5)n3)OCc3c(N5CCOCC5)ccnc3N4)C2)CC1 [Compound 341]
19 | – | – | – | – | – | 7.85 | – | – | 5.18 | – | 633 M⁻¹ s⁻¹ | C=CC(=O)N1CC(N2CCC(c3cc(C#N)c4c(c3)Nc3nccc(N5CCOCC5)c3C(C)O4)CC2)C1 (stereo not drawn) [Compound 342]
20 | 47.9 nM | 0.036 µM | 2.84e-05 s⁻¹ | 791 M⁻¹ s⁻¹ | 5130 nM | – | – | – | – | – | – | CC#CC(=O)N1CCC(N2CC(c3cc4c(c(CCC)n3)OCc3c(N5CCOCC5)ccnc3N4)C2)CC1 [Compound 347]
21 | 47.9 nM | 0.0543 µM | 5.99e-05 s⁻¹ | 1100 M⁻¹ s⁻¹ | 3090 nM | – | – | – | – | – | – | C=CC(=O)N1CCC(N2CC(c3cc4c(c(CCC)n3)OCc3c(N5CCOCC5)ccnc3N4)C2)CC1 [Compound 348]
22 | 97.7 nM | 0.0563 µM | 3.25e-05 s⁻¹ | 578 M⁻¹ s⁻¹ | 8320 nM | – | – | – | – | – | – | C=C(C(=O)N1CCC(N2CC(c3cc4c(c(C)n3)OCc3c(-c5cnn(C)c5)ccnc3N4)C2)CC1)n1cccn1 [Compound 349]
23 | 81.3 nM | 0.025 µM | 4.4e-05 s⁻¹ | 1760 M⁻¹ s⁻¹ | 10000 nM | – | – | – | – | – | – | C=CC(=O)N1CC(N2CC(c3cc4c(c(CCC)n3)OCc3c(N5CCOCC5)ccnc3N4)C2)C1 [Compound 350]
24 | – | 0.055 µM | 5.53e-05 s⁻¹ | 1010 M⁻¹ s⁻¹ | – | 7.52 | – | – | 5.51 | – | – | C=CC(=O)N1CC(N2CCC(c3cc(C#N)c4c(c3)Nc3nccc(N5CCOCC5)c3C(C)O4)CC2)C1 (stereo not drawn) [Compound 352]
25 | – | – | – | – | – | 7.24 | – | – | 5.11 | 2368.08 M⁻¹ s⁻¹ | – | C=CC(=O)N1CC(N2CC(c3cc4c(c(C(F)(F)F)n3)OCc3c(N5CCOCC5)ccnc3N4)C2)C1 [Compound 357]
26 | 102 nM | 0.028 µM | 2.79e-05 s⁻¹ | – | 2820 nM | – | – | 994.882 M⁻¹ s⁻¹ | – | – | – | C=CC(=O)N1CCC(N2CC(c3cc4c(c(C(F)(F)F)n3)OCc3c(N5CCOCC5)ccnc3N4)C2)CC1 [Compound 359]
27 | 162 nM | – | – | – | > 10000 nM | – | – | – | – | – | 464 M⁻¹ s⁻¹ | CC#CC(=O)N1CCC(N2CC(c3cc4c(c(-c5ncc[nH]5)n3)OCc3c(N5CCOCC5)ccnc3N4)C2)CC1 [Compound 364]
28 | 209 nM | – | – | – | 10700 nM | – | – | – | – | – | 339 M⁻¹ s⁻¹ | C=CC(=O)N1CCC(N2CC(c3cc4c(c(-c5ncc[nH]5)n3)OCc3c(N5CCOCC5)ccnc3N4)C2)CC1 [Compound 366]

— patent US20240254138A1, “TRICYCLIC PYRIMIDINES AS CYCLIN-DEPENDENT KINASE 7 (CDK7) INHIBITORS” (JANSSEN PHARMACEUTICA NV, priority 2021, published 2024)
